Source: ChEMBL document CHEMBL1146676, “3-Amino-2-hydroxyamides and related compounds as inhibitors of methionine aminopeptidase-2” (Bioorg Med Chem Lett, 2004)

Columns and labels:
[1] = molecular target: Methionine aminopeptidase 1 (Homo sapiens, UniProt P53582); assay: Inhibitory activity against human methionine aminopeptidase-1
[2] = molecular target: Methionine aminopeptidase 2 (Homo sapiens, UniProt P50579); assay: Inhibitory activity against human methionine aminopeptidase-2
[3] = species: Homo sapiens; assay: Inhibitory activity against proliferation of human microvascular endothelial cell

Sequence of Methionine aminopeptidase 2 (P50579 whole entry): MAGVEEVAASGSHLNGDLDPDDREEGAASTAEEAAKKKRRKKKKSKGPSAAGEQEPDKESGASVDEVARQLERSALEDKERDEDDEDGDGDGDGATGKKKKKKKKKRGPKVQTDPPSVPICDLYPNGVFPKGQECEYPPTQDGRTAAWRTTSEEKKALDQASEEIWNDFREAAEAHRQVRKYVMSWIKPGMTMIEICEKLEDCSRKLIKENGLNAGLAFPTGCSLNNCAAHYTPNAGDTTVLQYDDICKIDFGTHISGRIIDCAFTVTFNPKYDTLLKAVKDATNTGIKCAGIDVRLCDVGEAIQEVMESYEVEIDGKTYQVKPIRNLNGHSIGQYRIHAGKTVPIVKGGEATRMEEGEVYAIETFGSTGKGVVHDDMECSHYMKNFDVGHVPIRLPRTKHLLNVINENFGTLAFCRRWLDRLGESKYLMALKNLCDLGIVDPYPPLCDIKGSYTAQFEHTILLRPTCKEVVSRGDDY

Structure (SMILES) | IC50 [1] | also measured
CCCSC[C@@H](N)[C@H](O)C(=O)NNc1ccc(C)cc1 | 5 µM | 
CCOC(=O)[C@@H](C)NC(=O)[C@@H](O)[C@H](N)CC1CCCCC1 | > 100 µM | 
N[C@H](CC1CCCCC1)[C@H](O)C(=O)NOc1ccccc1 | 20 µM | 
CN(Cc1cccc2ccccc12)C(=O)[C@@H](O)[C@H](N)CCc1ccccc1 | > 100 µM | 
CCSCC[C@@H](N)[C@H](O)C(=O)NOc1ccccc1 | 1.3 µM | 
CC(C)[C@H](C)NC(=O)[C@@H](O)[C@H](N)CC1CCCCC1 |  | IC50 [2]: > 100 µM
CC(C)SCC[C@@H](N)[C@H](O)C(=O)N[C@@H](CO)c1ccccc1 | 32 µM | 
Cc1ccc(NNC(=O)[C@@H](O)[C@H](N)CSCC(C)C)cc1 | 6.8 µM | 
CC(C)CSC[C@@H](N)[C@H](O)C(=O)NCCc1ccc(Cl)cc1Cl | 53 µM | 
N[C@H](CCc1ccccc1)[C@H](O)C(=O)N[C@@H](CO)c1ccccc1 | 75 µM | 
CCOC(=O)[C@H](C)NC(=O)C(O)[C@H](N)CSC(C)(C)C (stereo partly specified) | 14 µM | 
CCSCC[C@@H](N)[C@H](O)C(=O)N(C)Cc1cccc2ccccc12 | 12 µM | 
CCOC(=O)[C@H](C)NC(=O)C(O)[C@H](N)CSC(C)C (stereo partly specified) | 13 µM | 
CCSCC[C@@H](N)[C@H](O)C(=O)NNc1ccc(C)cc1 | 1.3 µM | 
CCCSC[C@@H](N)[C@H](O)C(=O)N[C@@H](CO)c1ccccc1 | 12 µM | 
CCCC[C@@H](N)C(O)C(=O)N[C@@H](C)C(=O)OCC (stereo partly specified) | 100 µM | 
N[C@H](CC1CCCCC1)[C@H](O)C(=O)NNC(=O)c1cc(Cl)ccc1Cl | > 100 µM | 
CCOC(=O)[C@H](C)NC(=O)C(O)[C@H](N)CCSC (stereo partly specified) | 63 µM | 
CCOC(=O)[C@H](C)NC(=O)C(O)[C@H](N)CSCC1CCCCC1 (stereo partly specified) | > 100 µM | 
N[C@H](CC1CCCCC1)[C@H](O)C(=O)N[C@@H](CO)c1ccccc1 | 68 µM | 
CC(NC(=O)[C@@H](O)[C@H](N)CC1CCCCC1)c1ccc2ccccc2c1 (stereo partly specified) | 5.3 µM | 
CCOC(=O)[C@H](C)NC(=O)C(O)[C@H](N)CCc1ccccc1 (stereo partly specified) | 101 µM | 

Structure (SMILES) | IC50 [1] | also measured
N[C@H](CC1CCCCC1)[C@H](O)C(=O)NNc1cccc2ccccc12 | 58 µM | 
C[C@H](NC(=O)[C@@H](O)[C@H](N)CSCC1CCCCC1)c1cccc2ccccc12 | 45 µM | 
CCSCC[C@@H](N)[C@H](O)C(=O)NNC(=O)c1cccc(Cl)c1 | 8.7 µM | 
CCCSC[C@@H](N)[C@H](O)C(=O)NNC(=O)c1cccc(Cl)c1 | 11 µM | 
CCOC(=O)C(C)(C)NC(=O)[C@@H](O)[C@H](N)CC1CCCCC1 | > 100 µM | 
CCOC(=O)[C@H](C)NC(=O)C(O)[C@H](N)CSCC(C)C (stereo partly specified) | 66 µM | 
CCSCC[C@@H](N)[C@H](O)C(=O)NNC(=O)c1ccc2ccccc2c1 | 15 µM | 
N[C@H](CC1CCCCC1)[C@H](O)C(=O)NCCc1ccc(Cl)cc1Cl | 63 µM | 
CN(Cc1cccc2ccccc12)C(=O)[C@@H](O)[C@H](N)CC1CCCCC1 | 78 µM | 
CCCSC[C@@H](N)[C@H](O)C(=O)NCCc1ccc(Cl)cc1Cl | 24 µM | 
CCCSC[C@@H](N)[C@H](O)C(=O)NOc1ccccc1 | 1.7 µM | 
CC(C)SCC[C@@H](N)[C@H](O)C(=O)NNC(=O)c1ccc2ccccc2c1 | 18 µM | 
Cc1ccc(NNC(=O)[C@@H](O)[C@H](N)CCc2ccccc2)cc1 | 16 µM | 
CCOC(=O)[C@H](C)NC(=O)C(O)[C@H](N)CCSCC (stereo partly specified) | 69 µM | 
N[C@H](C1CCCCC1)[C@H](O)C(=O)NNC(=O)c1cccc(Cl)c1 | 46 µM | 
CC(C)CSC[C@@H](N)[C@H](O)C(=O)N(C)Cc1cccc2ccccc12 | 19 µM | 
CC(C)CSC[C@@H](N)[C@H](O)C(=O)NOc1ccccc1 | 1.5 µM | 
C[C@H](NC(=O)[C@@H](O)[C@H](N)CC1CCCCC1)C(=O)O | > 100 µM | 
N[C@H](C1CCCCC1)C(O)C(=O)NOc1ccccc1 (stereo partly specified) | 95 µM | 
CCCSC[C@@H](N)C(O)C(=O)N[C@@H](C)C(=O)OCC (stereo partly specified) | 57 µM | 
Cc1ccc(NNC(=O)[C@@H](O)[C@H](N)CCSC(C)C)cc1 | 11 µM | 
N[C@H](CC1CCCCC1)[C@H](O)C(=O)NCc1ccc2ccccc2c1 | 12 µM | 

Structure (SMILES) | IC50 [1] | also measured
N[C@H](C1CCCCC1)[C@H](O)C(=O)N[C@@H](CO)c1ccccc1 | 79 µM | 
CC(C)SCC[C@@H](N)[C@H](O)C(=O)NNC(=O)c1cccc(Cl)c1 | 56 µM | IC50 [3]: 0.1 µM
N[C@H](C1CCCCC1)[C@H](O)C(=O)NNc1cccc2ccccc12 | 89 µM | 
CC(C)SCC[C@@H](N)[C@H](O)C(=O)N(C)Cc1cccc2ccccc12 | 81 µM | 
N[C@H](CC1CCCCC1)[C@H](O)C(=O)NNC(=O)c1ccc2ccccc2c1 | 63 µM | 
CC(C)CSC[C@@H](N)[C@H](O)C(=O)N[C@@H](CO)c1ccccc1 | 11 µM | 
N[C@H](CCc1ccccc1)[C@H](O)C(=O)NNc1cccc2ccccc12 | 93 µM | 
CC(C)CSC[C@@H](N)[C@H](O)C(=O)NNc1cccc2ccccc12 | 34 µM | 
CCOC(=O)[C@H](C)NC(=O)[C@@H](O)[C@H](N)CC1CCCCC1 | 84 µM | 
Cc1ccc(NNC(=O)[C@@H](O)[C@H](N)CC2CCCCC2)cc1 | 14 µM | 
N[C@H](CSCC1CCCCC1)[C@H](O)C(=O)NCCc1ccc(Cl)cc1Cl | > 100 µM | 
CCSCC[C@@H](N)[C@H](O)C(=O)NNc1cccc2ccccc12 | 8.9 µM | 
N[C@H](CC1CCCCC1)[C@H](O)C(=O)NNC(=O)c1cccc(Cl)c1 | > 100 µM | 
CCOC(=O)[C@H](C)NC(=O)C(O)[C@H](N)CC1CCCCC1 (stereo partly specified) | 84 µM | 
CCOC(=O)[C@H](C)NC(=O)C(O)[C@H](N)CCC1CCCCC1 (stereo partly specified) | 137 µM | 
COc1cccc(NC(=O)[C@@H](O)[C@H](N)CC2CCCCC2)c1 | 90 µM | 
CC(C)SCC[C@@H](N)C(O)C(=O)NOc1ccccc1 (single isomer, unassigned) | 4.7 µM | 
C[C@H](NC(=O)C(O)[C@H](N)CCc1ccccc1)c1cccc2ccccc12 (single isomer, unassigned) | 12 µM | 
N[C@H](C1CCCCCCC1)C(O)C(=O)NOc1ccccc1 (single isomer, unassigned) | > 100 µM | 
CC(C)SCC[C@@H](N)C(O)C(=O)NCCc1ccc(Cl)cc1Cl (single isomer, unassigned) | 69 µM | 
N[C@H](CCc1ccccc1)C(O)C(=O)NOc1ccccc1 (single isomer, unassigned) | 13 µM | 
